Assay results: ChEMBL document CHEMBL1221235, “Novel Notch-sparing gamma-secretase inhibitors derived from a peroxisome proliferator-activated receptor agonist library” (Bioorg Med Chem Lett, 2010)
Active and inactive are the calls of the source. The calls are words filed in the database; no cut-off is given here.

Legend:
[1] = target: T1, Gamma-secretase (Homo sapiens) (UniProt Q96BI3+Q9NZ42+Q8WW43+P49768+Q92542+P49810); test: Inhibition of gamma-secretase in HEK293 cells co-overexpressing APP Swedish mutant assessed as inhibition of amyloid beta 40 production at 1 uM by luciferase reporter gene assay relative to DAPT; assay type: cell-based; details: values are per cent of control
[2] = target: T1, Gamma-secretase (Homo sapiens); test: Inhibition of gamma-secretase in HEK293 cells co-overexpressing APP Swedish mutant assessed as inhibition of amyloid beta 40 production at 100 uM by luciferase reporter gene assay relative to DAPT; assay type: cell-based; details: for residual activity: values are per cent of control
[3] = target: T1, Gamma-secretase (Homo sapiens); test: Inhibition of gamma-secretase in HEK293 cells co-overexpressing APP Swedish mutant assessed as inhibition of amyloid beta 42 production at 1 uM by luciferase reporter gene assay relative to DAPT; assay type: cell-based; details: values are per cent of control
[4] = target: T1, Gamma-secretase (Homo sapiens); test: Inhibition of gamma-secretase in HEK293 cells co-overexpressing APP Swedish mutant assessed as inhibition of amyloid beta 42 production at 100 uM by luciferase reporter gene assay relative to DAPT; assay type: cell-based; details: for residual activity: values are per cent of control
[5] = target: T1, Gamma-secretase (Homo sapiens); test: Inhibition of gamma-secretase in HEK293 cells co-overexpressing NotchdeltaE assessed as inhibition of notch cleavage at 1 uM by luciferase reporter gene assay relative to DAPT; assay type: cell-based; details: for residual activity: values are per cent of control
[6] = target: T1, Gamma-secretase (Homo sapiens); test: Inhibition of gamma-secretase in HEK293 cells co-overexpressing NotchdeltaE assessed as inhibition of notch cleavage at 100 uM by luciferase reporter gene assay relative to DAPT; assay type: cell-based; details: values are per cent of control
Gamma-secretase [7] = test: Inhibition of gamma-secretase in HEK293 cells co-overexpressing APP Swedish mutant assessed as inhibition of amyloid beta 40 production by luciferase reporter gene assay; assay type: cell-based, Homo sapiens
Gamma-secretase [8] = test: Inhibition of gamma-secretase in HEK293 cells co-overexpressing APP Swedish mutant assessed as inhibition of amyloid beta 42 production by luciferase reporter gene assay; assay type: cell-based, Homo sapiens
Gamma-secretase [9] = test: Inhibition of gamma-secretase in HEK293 cells co-overexpressing NotchdeltaE assessed as inhibition of notch cleavage by luciferase reporter gene assay; assay type: cell-based, Homo sapiens
[10] = target: T1, Gamma-secretase (Homo sapiens); test: Inhibition of gamma-secretase in HEK293 cells co-overexpressing NotchdeltaE assessed as inhibition of notch cleavage at 3 uM by luciferase reporter gene assay relative to DAPT; assay type: cell-based; details: values are per cent of control
[11] = target: T1, Gamma-secretase (Homo sapiens); test: Inhibition of gamma-secretase in HEK293 cells co-overexpressing NotchdeltaE assessed as inhibition of notch cleavage at 30 uM by luciferase reporter gene assay relative to DAPT; assay type: cell-based; details: values are per cent of control
[12] = target: T1, Gamma-secretase (Homo sapiens); test: Inhibition of gamma-secretase in HEK293 cells co-overexpressing APP Swedish mutant assessed as inhibition of amyloid beta 40 production at 3 uM by luciferase reporter gene assay relative to DAPT; assay type: cell-based; details: values are per cent of control
[13] = target: T1, Gamma-secretase (Homo sapiens); test: Inhibition of gamma-secretase in HEK293 cells co-overexpressing APP Swedish mutant assessed as inhibition of amyloid beta 40 production at 30 uM by luciferase reporter gene assay relative to DAPT; assay type: cell-based; details: values are per cent of control
[14] = target: T1, Gamma-secretase (Homo sapiens); test: Inhibition of gamma-secretase in HEK293 cells co-overexpressing APP Swedish mutant assessed as inhibition of amyloid beta 42 production at 3 uM by luciferase reporter gene assay relative to DAPT; assay type: cell-based; details: values are per cent of control
[15] = target: T1, Gamma-secretase (Homo sapiens); test: Inhibition of gamma-secretase in HEK293 cells co-overexpressing APP Swedish mutant assessed as inhibition of amyloid beta 42 production at 30 uM by luciferase reporter gene assay relative to DAPT; assay type: cell-based; details: values are per cent of control

`CCC(Cc1ccc(F)c(C(=O)NCc2ccc(OC(F)(F)F)cc2)c1)C(=O)O` (stereo unspecified) showed a residual activity [1] of 90.6%, a residual activity [2] of 42.6% and a residual activity [3] of 87.4%. It also gave a residual activity [4] of 55.7%, a residual activity [5] of 67.2% and a residual activity [6] of 0%.
`CCC(Cc1ccc(OC)c(CNC(=O)c2ccc(C(F)(F)F)cc2)c1)C(=O)O` (stereo unspecified) gave a residual activity [1] of 89.5%, a residual activity [3] of 101% and a residual activity [5] of 31.2%. The residual activity [6] was 0%.
`CCC(Cc1ccc(F)c(C(=O)NCc2ccc(C(F)(F)F)cc2)c1)C(=O)O` (stereo unspecified) gave a residual activity [1] of 77.6%, a residual activity [2] of 13% and a residual activity [3] of 63.3%. The residual activity [4] was 0%, the residual activity [5] was 53.8% and the residual activity [6] was 38.5%.
`CCC(Cc1ccc(OC)c(CNC(=O)c2ccc(Oc3ccccc3)cc2)c1)C(=O)O` (stereo unspecified) was tested, and the residual activity [1] was 103%, the residual activity [2] was 119% and the residual activity [3] was 103%. The residual activity [4] was 145%.
Molecule `CCC(Cc1ccc(F)c(C(=O)NCc2ccc(Oc3ccccc3)cc2)c1)C(=O)O` (stereo unspecified) has a residual activity [1] of 89.8%, a residual activity [2] of 63.2% and a residual activity [3] of 99.7%. The residual activity [4] was 106%, the residual activity [5] was 6.3% and the residual activity [6] was 6.8%.
`COc1ccc(CC(C)C(=O)O)cc1CNC(=O)c1ccc(C(F)(F)F)cc1` (stereo unspecified) was tested, and the residual activity [1] was 114%, the residual activity [2] was 132% and the residual activity [3] was 109%. The residual activity [4] was 139%.
In the case of `CCC(Cc1ccc(OC)c(CNC(=O)c2ccc(OCC(F)(F)F)cc2)c1)C(=O)O` (stereo unspecified), the residual activity [1] is reported as 118%, the residual activity [2] is reported as 136% and the residual activity [3] is reported as 119%. For the same molecule, the residual activity [4] was 133% and the residual activity [6] was 84%.
Work on `CCC(Cc1ccc(OC)c(C(=O)NCc2ccc(C(F)(F)F)cc2)c1)C(=O)O` (stereo unspecified) yielded a residual activity [1] of 82%, a residual activity [2] of 41% and a residual activity [3] of 88.5%. For the same molecule, the residual activity [4] was 15.2%, the residual activity [5] was 102% and the residual activity [6] was 8.9%.
Molecule `CC/C(=C\c1ccc(OC)c(C(=O)NCc2ccc(C(F)(F)F)cc2)c1)C(=O)O` has an IC50 (Gamma-secretase [7]) of 32.7 µM, an IC50 (Gamma-secretase [8]) of 22.4 µM and an IC50 (Gamma-secretase [9]) greater than 100 µM.
`COc1ccc(CCC(=O)O)cc1CNC(=O)c1ccc(C(F)(F)F)cc1` gave a residual activity [1] of 104%, a residual activity [2] of 112% and a residual activity [3] of 102%. The residual activity [4] was 104%.
With `CC[C@H](Cc1ccc(OC)c(C(=O)NCc2ccc(C(F)(F)F)cc2)c1)C(=O)O` the inhibition [2] was “Active”, the inhibition [4] was “Active” and the IC50 (Gamma-secretase [7]) was 37.8 µM. For the same molecule, the IC50 (Gamma-secretase [8]) was 34.2 µM and the IC50 (Gamma-secretase [9]) was greater than 100 µM.
Work on `CSc1ccc(/C=C2/C(C)=C(CC(=O)O)c3cc(F)ccc32)cc1` [SULINDAC SULFIDE] yielded a residual activity [10] of 90.7%, a residual activity [11] of 43.9% and a residual activity [12] of 98.4%. For the same molecule, the residual activity [13] was 88.6%, the residual activity [14] was 97.1% and the residual activity [15] was 60.3%. It also gave an IC50 (Gamma-secretase [7]) of 215 µM, an IC50 (Gamma-secretase [8]) of 82.5 µM and an IC50 (Gamma-secretase [9]) of 53 µM.
With `CC[C@@H](Cc1ccc(OC)c(C(=O)NCc2ccc(C(F)(F)F)cc2)c1)C(=O)O` the inhibition [5] was “Active”, the IC50 (Gamma-secretase [7]) was greater than 100 µM and the IC50 (Gamma-secretase [8]) was greater than 100 µM. For the same molecule, the IC50 (Gamma-secretase [9]) was 24 µM.
